Test system: vaginal proteome (human proteins in vaginal fluid)
Assay: MS/MS proteomic analysis of vaginal fluid pools, BV-affected women before (BV) and after rifaximin/placebo treatment: human proteins
Format: in vivo
Details: for Ratio: BV/R, Alpha-1-acid glycoprotein 1 / Ratio: BV/R, Alpha-1-acid glycoprotein 2 / Ratio: BV/R, Calcium-activated chloride channel regulator 4 / Ratio: BV/R, Catalase / Ratio: BV/R, Desmocollin-2 / Ratio: BV/R, Galectin-3-binding protein / Ratio: BV/R, Hemopexin / Ratio: BV/R, Ig mu chain C region / Ratio: BV/R, Immunoglobulin J chain / Ratio: BV/R, Keratin, type I cytoskeletal 10 / Ratio: BV/R, Keratin, type II cytoskeletal 1 / Ratio: BV/R, Keratin, type II cytoskeletal 2 epidermal / Ratio: BV/R, Keratin, type II cytoskeletal 5 / Ratio: BV/R, Lymphocyte-specific protein 1 / Ratio: BV/R, Myeloblastin / Ratio: BV/R, Neutrophil gelatinase-associated lipocalin / Ratio: BV/R, Perilipin-3 / Ratio: BV/R, Periplakin / Ratio: BV/R, Protein S100-A7 / Ratio: BV/R, Protein S100-A9 / Ratio: BV/R, Small proline-rich protein 3 / Ratio: BV/R, Superoxide dismutase [Cu—Zn] / Ratio: BV/R, Vitamin D-binding protein: vaginal fluid
Protocol: Proteomic analysis was performed on 9 pools of vaginal isolates, grouped according to the status of the BV infection: • H pool (from 41 healthy women); BV pool (from 39 BV-affected women); • A-R pool (from 2 women who were in remission after rifaximin treatment-group A); • A-N pool (from 8 women who were not in remission after rifaximin treatment-group A); • B-R pool (from 5 women who were in remission after rifaximin treatment-group B); • B-N pool (from 5 women who were not in remission after rifaximin treatment-group B); • C-R pool (from 4 women who were in remission after rifaximin treatment-group C); • C-N (from 5 women who were not in remission after rifaximin treatment-group C); • D-N (from 10 women who were not in remission after placebo treatment-group D). Scheme of the vaginal fluids collected for testing the diagnostic method is represented in FIG. 1.
In these figures are reported the peptides in the fractionated pools of healthy women, women affected by BV and peptides of women treated with rifaximin. The treatment with rifaximin was at dosage of 100 mg/day for 5 days; (remission, A-R; no remission, A-N), 25 mg/5 days (remission, B-R; no remission, B-N), 100 mg/2 days (remission, C-R; no remission, C-N), and placebo for 5 days (D-N). Two types of comparisons were carried out: (i) between fractionated pools of proteins from vaginal fluid of healthy women (HF) versus fractionated pool of proteins from vaginal fluid of women affected by bacterial vaginosis (BVF); (ii) between whole pools of proteins from vaginal fluid of women affected by BV treated by administering different doses of rifaximin or placebo before (BV) and after (A-R, A-N, B-R, B-N, C-R, C-N, D-N) treatment. Fractioned pools of proteins are obtained, e.g., by separating the proteins by separation on membrane filtration with different membrane porosity, prior to MS/MS analysis.
Nine volumes of acetone: HCl (10:1) were added to the supernatant of the vaginal rinsing and proteins were precipitated by centrifuging at 12000 g for 10 min. The protein pellet was dissolved in 1 mL of 70% ethanol and the sample was spun at 12000 g for 10 min. One mL of acetone was added and the proteins were further precipitated by centrifugation at 12000 g for 5 min. After removing supernatant, pellet was dried by SpeedVac concentrator (Thermo Savant ISS110, Thermo Fisher Scientific, Waltham, Mass.) and then stored at −20° C.
Protein extract was quantified using the 2-D Quant Kit (GE Healthcare, Uppsala, Sweden) according to the manufacturer's instructions.
Patients who were diagnosed for BV at the study visit V1 were included in a multicentre, double-blind, randomised, placebo-controlled study (EudraCT: 2009-011826-32), that was performed to compare the efficacy of different doses of rifaximin vaginal tablets versus placebo for the treatment of BV. The patients underwent a randomisation visit and were distributed into 4 treatment groups: group A received 100 mg rifaximin vaginal tablet once daily for 5 days (n=10), group B received 25 mg rifaximin vaginal tablet once daily for 5 days (n=10), group C received 100 mg rifaximin vaginal tablet once daily for the first 2 days and placebo vaginal tablet for the remaining 3 days (n=9), group D received placebo vaginal tablet once daily for 5 days (n=10). Study medication was administered intra-vaginally at bedtime. After 7 to 10 days from the end of the therapy a follow-up visit (V3) was performed. Remission was evaluated at V3 according to Amsel's criteria (<3) and Gram stain Nugent score (≦3) (Table 1).
Standardized vaginal rinsings with 2 mL of saline were collected for analysis at V1 and V3 by flushing and re-aspirating the fluid through a 22 Gauge needle in the left, central and right upper vaginal vaults. The vaginal rinsings were subsequently stored at −80° C. until use.
MS/MS analysis was carried out for H and BV pools and for the whole BV, A-R, A-N, B-R, B-N, C-R, C-N and D-N pools containing 50 μg of protein each. […]

[1] = A-R pool (100 mg × 5 days, in remission) vs BV pool before treatment
[2] = B-R pool (25 mg × 5 days, in remission) vs BV pool before treatment
[3] = B-R pool (25 mg × 5 days, remission) vs BV pool
[4] = B-R pool vs BV pool, differentially expressed only in B-R
[5] = C-R pool (100 mg × 2 days, in remission) vs BV pool before treatment

With `CO[C@H]1/C=C/O[C@@]2(C)Oc3c(C)c(O)c4c(O)c(c5c(nc6cc(C)ccn65)c4c3C2=O)NC(=O)/C(C)=C\C=C\[C@H](C)[C@H](O)[C@@H](C)[C@@H](O)[C@@H](C)[C@H](OC(C)=O)[C@@H]1C` [rifaximin] the “Ratio: BV/R, Alpha-1-acid glycoprotein 1” value [1] was 2.3, the “Ratio: BV/R, Alpha-1-acid glycoprotein 2” value [1] was 1.5 and the “Ratio: BV/R, Calcium-activated chloride channel regulator 4” value [1] was 2.9. The “Ratio: BV/R, Catalase” value [1] was 0.0, the “Ratio: BV/R, Desmocollin-2” value [1] was −1.5 and the “Ratio: BV/R, Galectin-3-binding protein” value [1] was 3.6. For the same molecule, the “Ratio: BV/R, Hemopexin” value [1] was 1.9, the “Ratio: BV/R, Ig mu chain C region” value [1] was 1.8 and the “Ratio: BV/R, Immunoglobulin J chain” value [1] was −1.5. The “Ratio: BV/R, Keratin, type I cytoskeletal 10” value (“Ratio … type I cytoskeletal 10” below) [1] was −2.8, the “Ratio: BV/R, Keratin, type II cytoskeletal 1” value (from here on “Ratio … type II cytoskeletal 1”) [1] was −3.9 and the “Ratio: BV/R, Keratin, type II cytoskeletal 2 epidermal” value [1] was −4.3. The “Ratio: BV/R, Keratin, type II cytoskeletal 5” value (shortened to “Ratio … type II cytoskeletal 5”) [1] was −16.3, the “Ratio: BV/R, Lymphocyte-specific protein 1” value [1] was −2.8 and the “Ratio: BV/R, Myeloblastin” value [1] was 0.0. For the same molecule, the “Ratio: BV/R, Neutrophil gelatinase-associated lipocalin” value [1] was 0.0, the “Ratio: BV/R, Perilipin-3” value [1] was −1.7 and the “Ratio: BV/R, Periplakin” value [1] was −3.6. For the same molecule, the “Ratio: BV/R, Protein S100-A7” value [1] was 19.2, the “Ratio: BV/R, Protein S100-A9” value [1] was 4.2 and the “Ratio: BV/R, Small proline-rich protein 3” value [1] was −6.6. For the same molecule, the “Ratio: BV/R, Superoxide dismutase [Cu—Zn]” value (“Ratio: BV/R … [Cu—Zn]” below) [1] was 1.8, the “Ratio: BV/R, Vitamin D-binding protein” value [1] was 1.7 and the “number of differentially expressed human proteins” value (B-N pool vs BV pool) was 155. For the same molecule, the “Ratio: BV/R, Alpha-1-acid glycoprotein 1” value [2] was 7.8, the “Ratio: BV/R, Alpha-1-acid glycoprotein 2” value [2] was 19.5 and the “Ratio: BV/R, Calcium-activated chloride channel regulator 4” value [2] was 0.0. The “Ratio: BV/R, Catalase” value [2] was 4.0, the “Ratio: BV/R, Desmocollin-2” value [2] was −2.0 and the “Ratio: BV/R, Galectin-3-binding protein” value [2] was 2.7. The “Ratio: BV/R, Hemopexin” value [2] was 9.0, the “Ratio: BV/R, Ig mu chain C region” value [2] was 8.1 and the “Ratio: BV/R, Immunoglobulin J chain” value [2] was −4.1. For the same molecule, the “Ratio … type I cytoskeletal 10” value [2] was −3.5, the “Ratio … type II cytoskeletal 1” value [2] was −6.2 and the “Ratio: BV/R, Keratin, type II cytoskeletal 2 epidermal” value [2] was −7.1. For the same molecule, the “Ratio … type II cytoskeletal 5” value [2] was −12.7, the “Ratio: BV/R, Lymphocyte-specific protein 1” value [2] was −3.2 and the “Ratio: BV/R, Myeloblastin” value [2] was 3.1. For the same molecule, the “Ratio: BV/R, Neutrophil gelatinase-associated lipocalin” value [2] was −1.5, the “Ratio: BV/R, Perilipin-3” value [2] was −2.9 and the “Ratio: BV/R, Periplakin” value [2] was −3.4. The “Ratio: BV/R, Protein S100-A7” value [2] was 5.7, the “Ratio: BV/R, Protein S100-A9” value [2] was 2.6 and the “Ratio: BV/R, Small proline-rich protein 3” value [2] was −6.6. The “Ratio: BV/R … [Cu—Zn]” value [2] was 1.5, the “Ratio: BV/R, Vitamin D-binding protein” value [2] was 17.8 and the “expression change of Kininogen-1” value [3] was −88.6 ratio. The “expression change of Prostate stem cell antigen” value [3] was 63.8 ratio, the “expression change of Stanniocalcin-1” value [3] was 113.1 ratio and the “number of differentially expressed human proteins” value (B-R pool vs BV pool) was 214. For the same molecule, the “expression change of Ig heavy chain V-III region BUT” value [4] was −1.6 ratio, the “expression change of Ig heavy chain V-III region VH26” value [4] was −1.5 ratio and the “expression change of Kallikrein-13” value [4] was 1.5 ratio. The “expression change of Neutrophil gelatinase-associated lipocalin” value [4] was 1.5 ratio, the “expression change of Zinc-alpha-2-glycoprotein” value [4] was −9.4 ratio and the “Ratio: BV/R, Alpha-1-acid glycoprotein 1” value [5] was 0.0. For the same molecule, the “Ratio: BV/R, Alpha-1-acid glycoprotein 2” value [5] was −1.9, the “Ratio: BV/R, Calcium-activated chloride channel regulator 4” value [5] was 1.8 and the “Ratio: BV/R, Catalase” value [5] was 2.3. For the same molecule, the “Ratio: BV/R, Desmocollin-2” value [5] was 0.0, the “Ratio: BV/R, Galectin-3-binding protein” value [5] was 0.0 and the “Ratio: BV/R, Hemopexin” value [5] was 1.7. The “Ratio: BV/R, Ig mu chain C region” value [5] was 0.0, the “Ratio: BV/R, Immunoglobulin J chain” value [5] was −2.2 and the “Ratio … type I cytoskeletal 10” value [5] was 0.0. The “Ratio … type II cytoskeletal 1” value [5] was −2.3, the “Ratio: BV/R, Keratin, type II cytoskeletal 2 epidermal” value [5] was 0.0 and the “Ratio … type II cytoskeletal 5” value [5] was −2.5. The “Ratio: BV/R, Lymphocyte-specific protein 1” value [5] was 0.0, the “Ratio: BV/R, Myeloblastin” value [5] was 4.0 and the “Ratio: BV/R, Neutrophil gelatinase-associated lipocalin” value [5] was 0.0. For the same molecule, the “Ratio: BV/R, Perilipin-3” value [5] was −2.3, the “Ratio: BV/R, Periplakin” value [5] was −2.0 and the “Ratio: BV/R, Protein S100-A7” value [5] was 2.5. For the same molecule, the “Ratio: BV/R, Protein S100-A9” value [5] was 0.0, the “Ratio: BV/R, Small proline-rich protein 3” value [5] was −4.4 and the “Ratio: BV/R … [Cu—Zn]” value [5] was 0.0.

Reference: patent US20160047819A1, “METHOD FOR DIAGNOSING VAGINAL INFECTIONS” (priority 2013, published 2016)
